Source: patent US7208500B2, “Thienopyridine-phenylacetamides and their derivatives useful as new anti-angiogenic agents” (Agouron Pharmaceuticals, Inc., priority 2003, dated 2007)

Key:
[1] = target: T1, FGF-R1 intracellular kinase domain (Homo sapiens, UniProt P11362, C488A/C584S/L457V); assay: FGF-R spectrophotometric assay; assay type: biochemical; conditions: 50 nM test compound; read-out: FGF-P (% inh @ 50 nM)
T1 construct: starting from the endogenous methionine residue 456 to glutamate 766; made in house; host or cells: baculovirus vector expression system
How it was run: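 Human FGF-R1 kinase domain (Met456–Glu766, L457V/C488A/C584S) expressed in baculovirus. Spectrophotometric kinase assay run as for VEGF-R2 with 50 nM FGF-R, 2 mM ATP and 15 mM poly(E4Y1).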

[2] = system: human umbilical vein endothelial cells (HUVEC); assay: HUVEC + VEGF proliferation assay; assay type: cell-based; conditions: VEGF-stimulated proliferation, final VEGF 6 ng/mL, 72 hours, MTT
Protocol: This assay determines the ability of a test compound to inhibit the growth factor-stimulated proliferation of human umbilical vein endothelial cells (“HUVEC”). HUVEC cells (passage 3–4, Clonetics, Corp.) were thawed into EGM2 culture medium (Clonetics Corp) in T75 flasks. Fresh EGM2 medium was added to the flasks 24 hours later. Four or five days later, cells were exposed to another culture medium (F12K medium supplemented with 10% fetal bovine serum (FBS), […] endothelial cell growth supplement (ECGS), and 0.1 mg/mL heparin). Exponentially-growing HUVEC cells were used in experiments thereafter. Ten to twelve thousand HUVEC cells were plated in 96-well dishes in […] of rich, culture medium (described above). The cells were allowed to attach for 24 hours in this medium. The medium was then removed by aspiration and […] of starvation media (F12K+1% FBS) was added to each well. After 24 hours, […] of test agent dissolved in 1% DMSO in starvation medium or this vehicle alone was added into each treatment well; the final DMSO concentration was 0.1%. One hour later, […] of VEGF (30 ng/mL) in starvation media was added to all wells except those containing untreated controls; the final VEGF concentration was 6 ng/mL. Cellular proliferation was quantified 72 hours later by MTT dye reduction, at which time cells were exposed for 4 hours MTT (Promega Corp.). Dye reduction was stopped by addition of a stop solution (Promega Corp.) and absorbance at 595 nm was determined on a 96-well spectrophotometer plate reader.

[3] = target: T2, unphosphorylated VEGF-R2D50 (FLVK), cytosolic domain of human VEGF-R2 (Homo sapiens, UniProt P35968, DEL940-989/E990V); assay: VEGF-R2 coupled spectrophotometric assay (FLVK); assay type: biochemical
T2 construct: VEGF-R2D50 contains residues 806–939 and 990–1171; made in house; host or cells: baculovirus/insect cell system
How it was run: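 Unphosphorylated VEGF-R2D50 (5–40 nM, baculovirus-expressed) was assayed with 3 mM ATP, 20 mM poly(E4Y1), 60 mM MgCl2 and 2 mM MnCl2 in HEPES pH 7.5. ADP formation was coupled via PK/LDH to NADH oxidation and followed at A340. Ki came from activity at varying compound concentrations fitted by the Morrison equation.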

T2 sequence (P35968 with tags, fused parts or gaps DEL940-989/E990V limits assumed): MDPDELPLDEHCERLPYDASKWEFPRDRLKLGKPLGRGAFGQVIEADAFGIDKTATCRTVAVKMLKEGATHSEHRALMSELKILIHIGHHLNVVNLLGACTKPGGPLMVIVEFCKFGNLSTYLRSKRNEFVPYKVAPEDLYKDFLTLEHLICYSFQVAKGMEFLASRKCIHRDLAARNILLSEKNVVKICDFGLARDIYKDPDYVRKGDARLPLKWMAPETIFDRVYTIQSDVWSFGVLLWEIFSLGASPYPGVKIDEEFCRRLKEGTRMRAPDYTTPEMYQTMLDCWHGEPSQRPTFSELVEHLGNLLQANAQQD
T1 sequence (P11362 456-766 L457V/C488A/C584S): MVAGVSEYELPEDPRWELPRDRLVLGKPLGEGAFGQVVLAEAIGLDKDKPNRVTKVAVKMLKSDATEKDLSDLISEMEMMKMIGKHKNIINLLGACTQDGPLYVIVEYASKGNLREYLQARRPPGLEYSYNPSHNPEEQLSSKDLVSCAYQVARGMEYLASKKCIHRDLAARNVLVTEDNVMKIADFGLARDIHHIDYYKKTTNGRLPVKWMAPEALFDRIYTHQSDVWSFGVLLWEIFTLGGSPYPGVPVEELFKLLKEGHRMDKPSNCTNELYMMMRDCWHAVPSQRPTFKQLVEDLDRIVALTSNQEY

Compound	inhibition at 0.05 µM [1] [%]	Ki [3] [nM]	IC50 [2] [nM]
Cc1cc(C)nc(NC(=O)Cc2ccc(Oc3ccnc4cc(C(=O)N5CC[C@@H](N(C)C)C5)sc34)cc2)c1 [Example 4, 2-{4-[2-((R)-3-Dimethylamino-pyrrolidine-1-carbonyl)-thieno[3,2-b]pyridin-7-yloxy]-phenyl}-N-(4,6-dimethyl-pyridin-2-yl)-acetamide]	5 to 10	< 1	1 to 10
O=C(Cc1ccc(Oc2ccnc3cc(C(=O)N4CC[C@@H](O)C4)sc23)cc1)Nc1ccccc1 [Example 20, 2-{4-[2-((R)-3-Hydroxy-pyrrolidine-1-carbonyl)-thieno[3,2-b]pyridin-7-yloxy]-phenyl}-N-phenyl-acetamide]	0 to 5	1 to 10	1 to 10
CNC(=O)Cc1ccc(Oc2ccnc3cc(C(=O)N4CC[C@@H](O)C4)sc23)cc1 [Example 69, 2-{4-[2-((R)-3-Hydroxy-pyrrolidine-1-carbonyl)-thieno[3,2-b]pyridin-7-yloxy]-phenyl}-N-methyl-acetamide]	0 to 5	> 10	> 10
O=C(Cc1ccc(Oc2ccnc3cc(C(=O)N4CC[C@@H](O)C4)sc23)cc1)Nc1cc2ccccc2cn1 [Example 17, 2-{4-[2-((R)-3-Hydroxy-pyrrolidine-1-carbonyl)-thieno[3,2-b]pyridin-7-yloxy]-phenyl}-N-isoquinolin-3-yl-acetamide]	> 10	< 1	> 10
Cn1ccnc1-c1cc2nccc(Oc3ccc(CC(=O)Nc4ccc(Cl)cn4)cc3)c2s1 [Example 10, N-(5-Chloro-pyridin-2-yl)-2-{4-[2-(1-methyl-1H-imidazol-2-yl)-thieno[3,2-b]pyridin-7-yloxy]-phenyl}-acetamide]	0 to 5	< 1	< 1
CCCCNC(=O)Oc1ccc(Oc2ccnc3cc(C(=O)N4CCC4)sc23)cc1 [Example 86, butyl-carbamic acid 4-[2-(azetidine-1-carbonyl)-thieno[3,2-b]pyridin-7-yloxy]-phenyl ester]	0 to 5	1 to 10	< 1
CN(C)C(=O)c1cc2nccc(Oc3ccc(CC(=O)Nc4ccc(Cl)cn4)cc3)c2s1 [Example 8, 7-{4-[(5-Chloro-pyridin-2-ylcarbamoyl)-methyl]-phenoxy}-thieno[3,2-b]pyridine-2-carboxylic acid dimethylamide]	0 to 5	1 to 10	> 10
Cc1cc(C)nc(NC(=O)Cc2ccc(Oc3ccnc4cc(-c5nccn5C)sc34)cc2)c1 [Example 9, N-(4,6-Dimethyl-pyridin-2-yl)-2-{4-[2-(1-methyl-1H-imidazol-2-yl)-thieno[3,2-b]pyridin-7-yloxy]-phenyl}-acetamide]	5 to 10	< 1	< 1

Continued, in another order:

inhibition at 0.05 µM [1] [%]	Ki [3] [nM]	Compound	IC50 [2] [nM]
> 10	1 to 10	O=C(Cc1ccc(Oc2ccnc3cc(C(=O)N4CCC4)sc23)cc1Cl)Nc1ccc(Cl)cn1 [Example 50, 2-{4-[2-(Azetidine-1-carbonyl)-thieno[3,2-b]pyridin-7-yloxy]-2-chloro-phenyl}-N-(5-chloro-pyridin-2-yl)-acetamide]	> 10
0 to 5	< 1	Cc1ccnc(NC(=O)Cc2ccc(Oc3ccnc4cc(C(=O)N5CCC5)sc34)cc2)c1 [Example 23, 2-{4-[2-(Azetidine-1-carbonyl)-thieno[3,2-b]pyridin-7-yloxy]-phenyl}-N-(4-methyl-pyridin-2-yl)-acetamide]	< 1
0 to 5	1 to 10	O=C(Cc1ccc(Oc2ccnc3cc(C(=O)N4CC[C@@H](O)C4)sc23)cc1Cl)Nc1ccccn1 [Example 61, 2-{2-Chloro-4-[2-((R)-3-hydroxy-pyrrolidine-1-carbonyl)-thieno[3,2-b]pyridin-7-yloxy]-phenyl}-N-pyridin-2-yl-acetamide]	> 10
0 to 5	1 to 10	O=C(Cc1ccc(Oc2ccnc3cc(C(=O)N4CCC4)sc23)cc1Cl)Nc1ccccn1 [Example 51, 2-{4-[2-(Azetidine-1-carbonyl)-thieno[3,2-b]pyridin-7-yloxy]-2-chloro-phenyl}-N-pyridin-2-yl-acetamide]	> 10
0 to 5	< 1	Cc1cc(NC(=O)Cc2ccc(Oc3ccnc4cc(C(=O)N5CCC5)sc34)cc2Cl)n[nH]1 [Example 55, 2-{4-[2-(Azetidine-1-carbonyl)-thieno[3,2-b]pyridin-7-yloxy]-2-chloro-phenyl}-N-(5-methyl-1H-pyrazol-3-yl)-acetamide]	< 1
0 to 5	< 1	Cc1cc(NC(=O)Cc2ccc(Oc3ccnc4cc(C(=O)N5CCC5)sc34)cc2Cl)on1 [Example 53, 2-{4-[2-(Azetidine-1-carbonyl)-thieno[3,2-b]pyridin-7-yloxy]-2-chloro-phenyl}-N-(3-methyl-isoxazol-5-yl)-acetamide]	1 to 10
